{"source": "the kinase profiling compilation of Christmann-Franck et al. (2016)", "key": {"[1]": {"molecular_target": "HIPK3 (human) (UniProt Q9H422)", "assay": "radiometric filter-binding kinase assay", "conditions": "compound 1.0 µM"}, "[2]": {"molecular_target": "MAP2K1 (human) (UniProt Q02750)", "sequence (Q02750 whole entry, looked up)": "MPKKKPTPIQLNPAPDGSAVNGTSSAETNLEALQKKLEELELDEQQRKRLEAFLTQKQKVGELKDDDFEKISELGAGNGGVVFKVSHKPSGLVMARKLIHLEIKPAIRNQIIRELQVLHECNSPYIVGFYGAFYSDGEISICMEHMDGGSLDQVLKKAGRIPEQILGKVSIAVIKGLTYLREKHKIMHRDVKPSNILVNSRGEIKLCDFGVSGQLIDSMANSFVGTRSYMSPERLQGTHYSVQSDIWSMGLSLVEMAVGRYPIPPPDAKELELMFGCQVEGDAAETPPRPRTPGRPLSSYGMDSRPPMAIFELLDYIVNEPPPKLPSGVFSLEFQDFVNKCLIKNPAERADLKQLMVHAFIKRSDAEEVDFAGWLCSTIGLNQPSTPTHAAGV", "assay": "radiometric filter-binding kinase assay"}, "[3]": {"molecular_target": "MKNK2 (human) (UniProt Q9HBH9)", "sequence (Q9HBH9 whole entry, looked up)": "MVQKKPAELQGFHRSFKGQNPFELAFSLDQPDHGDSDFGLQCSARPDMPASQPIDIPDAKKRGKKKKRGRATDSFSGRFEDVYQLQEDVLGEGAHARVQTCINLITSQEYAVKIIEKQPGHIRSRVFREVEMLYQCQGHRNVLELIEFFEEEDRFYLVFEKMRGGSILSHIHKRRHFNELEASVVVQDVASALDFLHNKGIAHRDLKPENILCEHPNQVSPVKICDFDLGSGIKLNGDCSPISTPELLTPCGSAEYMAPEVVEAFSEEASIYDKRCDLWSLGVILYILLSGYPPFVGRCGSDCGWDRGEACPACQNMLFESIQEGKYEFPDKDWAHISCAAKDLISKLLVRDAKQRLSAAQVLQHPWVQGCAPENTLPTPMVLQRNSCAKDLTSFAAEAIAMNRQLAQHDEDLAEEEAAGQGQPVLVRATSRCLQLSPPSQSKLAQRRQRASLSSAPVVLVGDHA", "assay": "radiometric filter-binding kinase assay"}, "[4]": {"molecular_target": "NEK6 (human) (UniProt Q9HC98)", "sequence (Q9HC98 whole entry, looked up)": "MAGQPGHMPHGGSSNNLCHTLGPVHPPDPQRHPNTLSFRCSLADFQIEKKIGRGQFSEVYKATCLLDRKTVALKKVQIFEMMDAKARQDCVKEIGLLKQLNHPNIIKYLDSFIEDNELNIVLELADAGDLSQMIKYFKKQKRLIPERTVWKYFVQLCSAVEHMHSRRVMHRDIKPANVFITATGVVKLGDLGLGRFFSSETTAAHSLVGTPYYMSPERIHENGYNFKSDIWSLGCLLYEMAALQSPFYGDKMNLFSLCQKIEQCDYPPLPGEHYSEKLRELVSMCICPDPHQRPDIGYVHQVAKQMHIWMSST", "assay": "radiometric filter-binding kinase assay"}, "[5]": {"molecular_target": "NUAK1 (human) (UniProt O60285)", "sequence (O60285 whole entry, looked up)": "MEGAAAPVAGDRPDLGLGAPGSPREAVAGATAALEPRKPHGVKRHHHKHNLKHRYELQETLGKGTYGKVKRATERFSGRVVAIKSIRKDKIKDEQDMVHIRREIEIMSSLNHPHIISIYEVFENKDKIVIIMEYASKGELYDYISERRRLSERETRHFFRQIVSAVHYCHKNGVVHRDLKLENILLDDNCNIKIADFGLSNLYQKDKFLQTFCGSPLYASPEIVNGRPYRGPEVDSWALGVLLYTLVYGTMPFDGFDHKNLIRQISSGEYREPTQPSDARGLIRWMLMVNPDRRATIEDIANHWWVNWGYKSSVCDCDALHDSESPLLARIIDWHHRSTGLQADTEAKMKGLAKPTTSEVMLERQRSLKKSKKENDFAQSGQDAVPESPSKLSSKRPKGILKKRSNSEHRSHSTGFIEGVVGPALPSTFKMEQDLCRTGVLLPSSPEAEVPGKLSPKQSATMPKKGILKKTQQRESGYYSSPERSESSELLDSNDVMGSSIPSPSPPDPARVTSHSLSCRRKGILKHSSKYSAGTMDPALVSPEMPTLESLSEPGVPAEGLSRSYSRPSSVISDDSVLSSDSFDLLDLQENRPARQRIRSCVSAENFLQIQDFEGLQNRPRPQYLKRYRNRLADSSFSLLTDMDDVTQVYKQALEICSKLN", "assay": "radiometric filter-binding kinase assay"}, "[6]": {"molecular_target": "PLK1 (human) (UniProt P53350)", "sequence (P53350 whole entry, looked up)": "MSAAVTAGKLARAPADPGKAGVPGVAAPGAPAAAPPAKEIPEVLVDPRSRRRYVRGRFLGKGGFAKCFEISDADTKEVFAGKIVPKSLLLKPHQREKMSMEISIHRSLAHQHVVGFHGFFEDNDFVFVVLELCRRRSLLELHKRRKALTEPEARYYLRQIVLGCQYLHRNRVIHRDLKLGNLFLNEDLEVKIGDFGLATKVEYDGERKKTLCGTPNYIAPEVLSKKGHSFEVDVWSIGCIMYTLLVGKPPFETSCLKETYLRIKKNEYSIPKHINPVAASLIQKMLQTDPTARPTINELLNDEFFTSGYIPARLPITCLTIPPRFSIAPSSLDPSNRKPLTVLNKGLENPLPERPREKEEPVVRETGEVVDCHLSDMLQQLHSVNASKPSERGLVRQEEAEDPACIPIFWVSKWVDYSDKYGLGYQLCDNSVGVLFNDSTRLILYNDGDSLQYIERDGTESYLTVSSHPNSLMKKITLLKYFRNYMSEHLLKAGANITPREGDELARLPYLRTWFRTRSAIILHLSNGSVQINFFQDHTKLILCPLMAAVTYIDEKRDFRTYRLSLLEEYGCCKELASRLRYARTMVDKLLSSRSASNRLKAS", "assay": "radiometric filter-binding kinase assay"}, "[7]": {"molecular_target": "AAK1 (human) (UniProt Q2M2I8)", "assay": "KINOMEscan competition binding", "conditions": "compound 1.0 µM"}, "[8]": {"molecular_target": "ABL2 (human) (UniProt P42684)", "assay": "KINOMEscan competition binding", "conditions": "compound 1.0 µM"}, "[9]": {"molecular_target": "ACVR1 (human) (UniProt Q04771)", "assay": "KINOMEscan competition binding", "conditions": "compound 1.0 µM"}, "[10]": {"molecular_target": "BUB1 (human) (UniProt O43683)", "assay": "KINOMEscan competition binding", "conditions": "compound 1.0 µM"}, "[11]": {"molecular_target": "CAMK1D (human) (UniProt Q8IU85)", "sequence (Q8IU85 whole entry, looked up)": "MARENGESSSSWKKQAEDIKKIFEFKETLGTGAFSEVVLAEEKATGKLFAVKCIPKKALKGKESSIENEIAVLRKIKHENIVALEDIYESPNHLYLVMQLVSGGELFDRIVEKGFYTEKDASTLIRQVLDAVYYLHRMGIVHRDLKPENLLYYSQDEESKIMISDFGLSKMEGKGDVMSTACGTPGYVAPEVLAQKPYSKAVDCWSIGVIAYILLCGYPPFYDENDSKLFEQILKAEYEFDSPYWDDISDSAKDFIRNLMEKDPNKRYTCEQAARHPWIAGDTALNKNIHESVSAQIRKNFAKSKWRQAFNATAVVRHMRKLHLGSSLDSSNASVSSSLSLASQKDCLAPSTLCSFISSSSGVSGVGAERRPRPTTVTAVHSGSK", "assay": "KINOMEscan competition binding", "conditions": "compound 1.0 µM"}, "[12]": {"molecular_target": "CAMK1G (human) (UniProt Q96NX5)", "assay": "KINOMEscan competition binding", "conditions": "compound 1.0 µM"}, "[13]": {"molecular_target": "CDK4 CCND1 (human) (UniProt P11802+P24385)", "sequence (P11802 whole entry, looked up)": "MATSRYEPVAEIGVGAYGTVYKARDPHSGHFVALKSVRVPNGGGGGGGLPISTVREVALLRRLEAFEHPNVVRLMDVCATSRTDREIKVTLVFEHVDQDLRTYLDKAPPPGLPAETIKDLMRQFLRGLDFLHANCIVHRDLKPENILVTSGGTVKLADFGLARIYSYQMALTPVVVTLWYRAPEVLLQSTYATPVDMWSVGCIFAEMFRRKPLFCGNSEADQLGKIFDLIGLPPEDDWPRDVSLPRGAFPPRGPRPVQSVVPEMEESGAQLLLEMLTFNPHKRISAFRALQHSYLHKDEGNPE", "sequence (P24385 whole entry, looked up)": "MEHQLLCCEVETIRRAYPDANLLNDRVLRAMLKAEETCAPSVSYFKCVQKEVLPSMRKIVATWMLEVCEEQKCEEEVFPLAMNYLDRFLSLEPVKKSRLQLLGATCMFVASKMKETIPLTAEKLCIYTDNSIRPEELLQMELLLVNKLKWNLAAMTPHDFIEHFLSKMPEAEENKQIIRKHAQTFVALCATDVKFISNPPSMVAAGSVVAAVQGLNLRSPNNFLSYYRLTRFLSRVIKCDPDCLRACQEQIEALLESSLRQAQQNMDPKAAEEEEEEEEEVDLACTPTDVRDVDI", "assay": "KINOMEscan competition binding", "conditions": "compound 1.0 µM"}, "[14]": {"molecular_target": "CDKL3 (human) (UniProt Q8IVW4)", "assay": "KINOMEscan competition binding", "conditions": "compound 1.0 µM"}, "[15]": {"system": "EGFR (human), P00533 [752-759 del]", "assay": "KINOMEscan competition binding", "conditions": "compound 1.0 µM"}, "[16]": {"molecular_target": "EPHA1 (human) (UniProt P21709)", "assay": "KINOMEscan competition binding", "conditions": "compound 1.0 µM"}, "[17]": {"molecular_target": "EPHB4 (human) (UniProt P54760)", "assay": "KINOMEscan competition binding", "conditions": "compound 1.0 µM"}, "[18]": {"molecular_target": "IKBKE (human) (UniProt Q14164)", "assay": "KINOMEscan competition binding", "conditions": "compound 1.0 µM"}, "[19]": {"molecular_target": "MAP2K2 (human) (UniProt P36507)", "assay": "KINOMEscan competition binding", "conditions": "compound 1.0 µM"}, "[20]": {"molecular_target": "MAP3K15 (human) (UniProt Q6ZN16)", "assay": "KINOMEscan competition binding", "conditions": "compound 1.0 µM"}, "[21]": {"molecular_target": "MAP3K4 (human) (UniProt Q9Y6R4)", "assay": "KINOMEscan competition binding", "conditions": "compound 1.0 µM"}, "[22]": {"molecular_target": "MARK2 (human) (UniProt Q7KZI7)", "assay": "KINOMEscan competition binding", "conditions": "compound 1.0 µM"}, "[23]": {"molecular_target": "MARK4 (human) (UniProt Q96L34)", "assay": "KINOMEscan competition binding", "conditions": "compound 1.0 µM"}, "[24]": {"molecular_target": "MELK (human) (UniProt Q14680)", "assay": "KINOMEscan competition binding", "conditions": "compound 1.0 µM"}, "[25]": {"molecular_target": "NEK5 (human) (UniProt Q6P3R8)", "assay": "KINOMEscan competition binding", "conditions": "compound 1.0 µM"}, "[26]": {"molecular_target": "NIM1 (human) (UniProt Q8IY84)", "sequence (Q8IY84 whole entry, looked up)": "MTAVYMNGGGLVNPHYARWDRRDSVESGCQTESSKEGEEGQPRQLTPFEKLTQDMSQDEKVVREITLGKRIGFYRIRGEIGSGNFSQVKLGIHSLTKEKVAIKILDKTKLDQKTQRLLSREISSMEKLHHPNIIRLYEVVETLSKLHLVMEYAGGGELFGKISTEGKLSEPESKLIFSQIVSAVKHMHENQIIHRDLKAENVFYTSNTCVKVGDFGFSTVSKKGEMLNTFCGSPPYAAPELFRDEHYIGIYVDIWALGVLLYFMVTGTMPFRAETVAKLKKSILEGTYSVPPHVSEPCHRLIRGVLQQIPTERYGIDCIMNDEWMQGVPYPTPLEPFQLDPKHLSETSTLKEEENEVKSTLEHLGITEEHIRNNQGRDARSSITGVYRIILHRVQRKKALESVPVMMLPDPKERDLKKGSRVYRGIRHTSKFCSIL", "assay": "KINOMEscan competition binding", "conditions": "compound 1.0 µM"}, "[27]": {"molecular_target": "PAK1 (human) (UniProt Q13153)", "sequence (Q13153 whole entry, looked up)": "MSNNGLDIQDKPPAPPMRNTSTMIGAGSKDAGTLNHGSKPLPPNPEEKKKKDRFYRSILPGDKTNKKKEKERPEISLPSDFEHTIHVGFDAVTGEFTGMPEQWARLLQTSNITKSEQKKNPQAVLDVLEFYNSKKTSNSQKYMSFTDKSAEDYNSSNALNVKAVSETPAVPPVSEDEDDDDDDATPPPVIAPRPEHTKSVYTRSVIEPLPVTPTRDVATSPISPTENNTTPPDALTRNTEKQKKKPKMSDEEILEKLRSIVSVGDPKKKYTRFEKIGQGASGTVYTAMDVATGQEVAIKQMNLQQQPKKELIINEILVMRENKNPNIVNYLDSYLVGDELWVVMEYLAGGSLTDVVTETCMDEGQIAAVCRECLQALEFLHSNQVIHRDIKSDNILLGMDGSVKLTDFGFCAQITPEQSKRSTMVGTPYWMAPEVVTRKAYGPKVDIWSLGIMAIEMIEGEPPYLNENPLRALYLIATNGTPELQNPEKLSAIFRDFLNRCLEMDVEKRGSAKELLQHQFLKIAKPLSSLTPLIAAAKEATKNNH", "assay": "KINOMEscan competition binding", "conditions": "compound 1.0 µM"}, "[28]": {"system": "PIK3CA (human), P42336 [M1043I]", "assay": "KINOMEscan competition binding", "conditions": "compound 1.0 µM"}, "[29]": {"molecular_target": "PTK6 (human) (UniProt Q13882)", "assay": "KINOMEscan competition binding", "conditions": "compound 1.0 µM"}, "[30]": {"molecular_target": "RPS6KA4 KD1 (human) (UniProt O75676)", "assay": "KINOMEscan competition binding", "conditions": "compound 1.0 µM"}, "[31]": {"molecular_target": "RPS6KA6 KD2 (human) (UniProt Q9UK32)", "assay": "KINOMEscan competition binding", "conditions": "compound 1.0 µM"}, "[32]": {"molecular_target": "SGK3 (human) (UniProt Q96BR1)", "sequence (Q96BR1 whole entry, looked up)": "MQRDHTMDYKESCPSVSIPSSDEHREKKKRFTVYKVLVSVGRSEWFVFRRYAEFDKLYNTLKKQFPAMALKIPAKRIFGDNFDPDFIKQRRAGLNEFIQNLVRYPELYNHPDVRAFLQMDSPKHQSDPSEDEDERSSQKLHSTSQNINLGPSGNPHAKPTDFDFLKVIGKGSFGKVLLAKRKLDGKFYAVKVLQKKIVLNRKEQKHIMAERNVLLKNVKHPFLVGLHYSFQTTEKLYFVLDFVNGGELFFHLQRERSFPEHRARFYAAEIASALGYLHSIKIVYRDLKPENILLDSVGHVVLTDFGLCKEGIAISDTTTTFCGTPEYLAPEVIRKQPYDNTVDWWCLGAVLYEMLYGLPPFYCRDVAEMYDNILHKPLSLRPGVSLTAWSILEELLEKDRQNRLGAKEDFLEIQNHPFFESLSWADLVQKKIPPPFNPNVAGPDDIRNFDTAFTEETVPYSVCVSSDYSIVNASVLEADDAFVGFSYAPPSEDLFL", "assay": "KINOMEscan competition binding", "conditions": "compound 1.0 µM"}, "[33]": {"molecular_target": "STK35 (human) (UniProt Q8TDR2)", "assay": "KINOMEscan competition binding", "conditions": "compound 1.0 µM"}, "[34]": {"molecular_target": "TBK1 (human) (UniProt Q9UHD2)", "assay": "KINOMEscan competition binding", "conditions": "compound 1.0 µM"}, "[35]": {"molecular_target": "TEK (human) (UniProt Q02763)", "assay": "KINOMEscan competition binding", "conditions": "compound 1.0 µM"}, "[36]": {"molecular_target": "TNIK (human) (UniProt Q9UKE5)", "assay": "KINOMEscan competition binding", "conditions": "compound 1.0 µM"}, "[37]": {"molecular_target": "YSK4 (human) (UniProt Q56UN5)", "assay": "KINOMEscan competition binding", "conditions": "compound 1.0 µM"}, "[38]": {"molecular_target": "ZAP70 (human) (UniProt P43403)", "assay": "KINOMEscan competition binding", "conditions": "compound 1.0 µM"}}, "data": [{"compound": "CNc1nc(Nc2ccc(C(=O)N3CCOCC3)cc2OC)ncc1Cl", "values": [{"measurement": "residual activity", "setting": "[1]", "result": 85, "unit": "%"}, {"measurement": "residual activity", "setting": "[2]; compound 1.0 µM", "result": 106, "unit": "%"}, {"measurement": "residual activity", "setting": "[2]; compound 10.0 µM", "result": 93, "unit": "%"}, {"measurement": "residual activity", "setting": "[3]; compound 1.0 µM", "result": 20, "unit": "%"}, {"measurement": "residual activity", "setting": "[3]; compound 10.0 µM", "result": 7, "unit": "%"}, {"measurement": "residual activity", "setting": "[4]; compound 1.0 µM", "result": 73, "unit": "%"}, {"measurement": "residual activity", "setting": "[4]; compound 10.0 µM", "result": 69, "unit": "%"}, {"measurement": "residual activity", "setting": "[5]; compound 1.0 µM", "result": 43, "unit": "%"}, {"measurement": "residual activity", "setting": "[5]; compound 10.0 µM", "result": 20, "unit": "%"}, {"measurement": "residual activity", "setting": "[6]; compound 1.0 µM", "result": 97, "unit": "%"}, {"measurement": "residual activity", "setting": "[6]; compound 10.0 µM", "result": 105, "unit": "%"}, {"measurement": "kinase still bound, per cent of control", "setting": "[7]", "result": 38, "unit": "%"}, {"measurement": "kinase still bound, per cent of control", "setting": "[8]", "result": 100, "unit": "%"}, {"measurement": "kinase still bound, per cent of control", "setting": "[9]", "result": 95, "unit": "%"}, {"measurement": "kinase still bound, per cent of control", "setting": "[10]", "result": 100, "unit": "%"}, {"measurement": "kinase still bound, per cent of control", "setting": "[11]", "result": 100, "unit": "%"}, {"measurement": "kinase still bound, per cent of control", "setting": "[12]", "result": 96, "unit": "%"}, {"measurement": "residual activity", "setting": "[13]", "result": 100, "unit": "%"}, {"measurement": "residual activity", "setting": "[14]", "result": 100, "unit": "%"}, {"measurement": "kinase still bound, per cent of control", "setting": "[15]", "result": 100, "unit": "%"}, {"measurement": "kinase still bound, per cent of control", "setting": "[16]", "result": 100, "unit": "%"}, {"measurement": "kinase still bound, per cent of control", "setting": "[17]", "result": 100, "unit": "%"}, {"measurement": "kinase still bound, per cent of control", "setting": "[18]", "result": 86, "unit": "%"}, {"measurement": "kinase still bound, per cent of control", "setting": "[19]", "result": 84, "unit": "%"}, {"measurement": "kinase still bound, per cent of control", "setting": "[20]", "result": 97, "unit": "%"}, {"measurement": "kinase still bound, per cent of control", "setting": "[21]", "result": 100, "unit": "%"}, {"measurement": "kinase still bound, per cent of control", "setting": "[22]", "result": 100, "unit": "%"}, {"measurement": "kinase still bound, per cent of control", "setting": "[23]", "result": 45, "unit": "%"}, {"measurement": "kinase still bound, per cent of control", "setting": "[24]", "result": 100, "unit": "%"}, {"measurement": "kinase still bound, per cent of control", "setting": "[25]", "result": 100, "unit": "%"}, {"measurement": "kinase still bound, per cent of control", "setting": "[26]", "result": 100, "unit": "%"}, {"measurement": "kinase still bound, per cent of control", "setting": "[27]", "result": 100, "unit": "%"}, {"measurement": "kinase still bound, per cent of control", "setting": "[28]", "result": 93, "unit": "%"}, {"measurement": "kinase still bound, per cent of control", "setting": "[29]", "result": 47, "unit": "%"}, {"measurement": "kinase still bound, per cent of control", "setting": "[30]", "result": 89, "unit": "%"}, {"measurement": "kinase still bound, per cent of control", "setting": "[31]", "result": 89, "unit": "%"}, {"measurement": "kinase still bound, per cent of control", "setting": "[32]", "result": 100, "unit": "%"}, {"measurement": "kinase still bound, per cent of control", "setting": "[33]", "result": 100, "unit": "%"}, {"measurement": "kinase still bound, per cent of control", "setting": "[34]", "result": 100, "unit": "%"}, {"measurement": "kinase still bound, per cent of control", "setting": "[35]", "result": 100, "unit": "%"}, {"measurement": "kinase still bound, per cent of control", "setting": "[36]", "result": 100, "unit": "%"}, {"measurement": "kinase still bound, per cent of control", "setting": "[37]", "result": 44, "unit": "%"}, {"measurement": "kinase still bound, per cent of control", "setting": "[38]", "result": 92, "unit": "%"}]}]}
